Data: US9771340B2, “2-aminothiazole derivatives and methods of preparing and using the same” (Huazhong University of Science & Technology, priority 2011, dated 2017)

How the values were obtained:
PARP-1 = target: T1, PARP-1 (Homo sapiens, UniProt P09874); details: within a concentration of between 2 M and 10 mM (so in the source); positive control; cited from earlier work
T1 construct: purchased R&D 4677-096-K

SH-SY5Y cells [1] = test: Protection against cobalt chloride-induced hypoxic injury, MTT method and microscope; assay type: cell-based, human; details: cobalt chloride 600 μM/L for 24 h, FIG. 4, FIG. 6
Experimental: Dopaminergic neuroblastoma tumor cells SH-SY5Y from human body were employed as experiment cells. Cobalt chloride having a concentration of 600 μM/L was used to treat SH-SY5Y cells for 24 h. […] It was known from the results that the aminothiazole derivatives have good protection on the cell against hypoxic injuries caused by cobalt chloride. Observed under the microscope, cells after being damaged (FIG. 5) had unclear edges, and the number of the cells was decreased. […] The growth of the cells was good.

SH-SY5Y cells [2] = test: Protection against neuronal apoptosis induced by hydrogen peroxide, MTT method; assay type: cell-based, human; details: SH-SY5Y cells damaged by H2O2 1000 μM/L for 12 h; concentration of 1 μM
Experimental: Dopaminergic neuroblastoma tumor cells SH-SY5Y from human body were employed as experiment cells. H2O2 having a concentration of 1000 μM/L was used to treat SH-SY5Y cells for 12 h. Cell viability was approximately 50%, and a hydrogen peroxide damage model was determined MTT method was used to test the protection of TJ-M201018 (1), TJ-M201005 (2), TJ-M201041 (3), TJ-M201021 (4), and TJ-M201064 (5) on the cells damaged by hydrogen peroxide; results were shown in FIG. 3.

CD80 in RAW264.7 cells = details: pre-incubated 2 h, then stimulus 12 h
Experimental: 4. Flow antibodies FITC-labeled anti-CD80, CD86 were added for testing.
Raw264.7: 48-well plate, cells number of […]. Each well was added with 1 mL of culture system. Different concentrations of TJ-M201021 were added, and cells were pre-incubated for 2 h. CPG was then added. A final concentration was 40 ug/mL. Cells were incubated for 12 h at a temperature of 37° C. in an incubator filled with CO2. Flow antibodies FITC-labeled anti-CD80 and CD86 were added for testing.

T1 sequence (P09874 whole entry): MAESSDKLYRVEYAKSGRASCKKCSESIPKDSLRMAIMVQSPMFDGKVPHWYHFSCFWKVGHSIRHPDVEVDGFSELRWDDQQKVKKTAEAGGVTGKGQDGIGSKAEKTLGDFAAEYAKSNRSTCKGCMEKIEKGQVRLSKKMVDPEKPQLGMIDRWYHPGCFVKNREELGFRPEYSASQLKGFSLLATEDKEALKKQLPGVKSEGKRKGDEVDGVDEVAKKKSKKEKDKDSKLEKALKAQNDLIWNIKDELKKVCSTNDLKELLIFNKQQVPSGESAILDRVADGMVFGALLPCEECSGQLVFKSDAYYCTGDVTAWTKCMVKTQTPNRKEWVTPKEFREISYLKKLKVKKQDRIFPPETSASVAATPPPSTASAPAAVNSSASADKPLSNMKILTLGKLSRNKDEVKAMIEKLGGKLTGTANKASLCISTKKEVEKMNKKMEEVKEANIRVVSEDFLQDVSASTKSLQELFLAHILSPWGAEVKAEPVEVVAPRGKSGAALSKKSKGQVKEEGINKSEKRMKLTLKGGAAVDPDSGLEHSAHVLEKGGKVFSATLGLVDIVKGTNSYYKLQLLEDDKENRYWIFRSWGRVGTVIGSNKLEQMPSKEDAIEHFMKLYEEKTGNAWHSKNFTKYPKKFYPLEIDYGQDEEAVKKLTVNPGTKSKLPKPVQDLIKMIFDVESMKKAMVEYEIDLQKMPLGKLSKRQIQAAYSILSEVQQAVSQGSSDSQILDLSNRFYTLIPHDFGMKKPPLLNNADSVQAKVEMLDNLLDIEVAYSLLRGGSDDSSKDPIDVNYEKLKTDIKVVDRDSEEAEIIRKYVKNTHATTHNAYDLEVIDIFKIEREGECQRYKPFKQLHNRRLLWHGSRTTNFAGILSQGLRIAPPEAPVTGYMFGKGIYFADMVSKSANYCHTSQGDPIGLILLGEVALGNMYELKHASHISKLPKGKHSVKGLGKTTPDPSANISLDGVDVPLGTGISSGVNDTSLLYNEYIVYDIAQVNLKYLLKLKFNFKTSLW

SMILES	inhibition effect on the PARP-1 (PARP-1)	protection on the cell against hypoxic injuries caused by cobalt chloride (SH-SY5Y cells [1])	cell viability (FIG. 3: increase rate of the cell viability) (SH-SY5Y cells [2])	increase of the costimulatory molecules CD80 caused by TLR stimuli (LPS, CpG) (CD80 in RAW264.7 cells)
NC(=O)c1cccc(N)c1 [3-AB]	had an inhibition effect on the PARP-1	–	–	–
COc1ccc(N2CCN(CCC(=O)Nc3nc(-c4ccccc4)cs3)CC2)cc1 [TJ-M201021]	–	a large number of cells existed and had clear edges	30%	inhibited the increase of the costimulatory molecules CD80
